We go through 16 compounds from US9751869B2, “LXR modulators” (BRISTOL-MYERS SQUIBB COMPANY, priority 2013, dated 2017).

The structures appear in SMILES notation.

The target of the assay is T1, LXRβ (Homo sapiens, UniProt P55055).
T1 construct: Co-transfection expression plasmids, comprising full-length LXRα (pCMX-h LXRα or LXRβ (pCMX-hLXRβ)); expressed in transfected cells; host or cells: CV-1 African green monkey kidney cells, transient transfection with pCMX-hLXRβ
T1 sequence (P55055 1-460): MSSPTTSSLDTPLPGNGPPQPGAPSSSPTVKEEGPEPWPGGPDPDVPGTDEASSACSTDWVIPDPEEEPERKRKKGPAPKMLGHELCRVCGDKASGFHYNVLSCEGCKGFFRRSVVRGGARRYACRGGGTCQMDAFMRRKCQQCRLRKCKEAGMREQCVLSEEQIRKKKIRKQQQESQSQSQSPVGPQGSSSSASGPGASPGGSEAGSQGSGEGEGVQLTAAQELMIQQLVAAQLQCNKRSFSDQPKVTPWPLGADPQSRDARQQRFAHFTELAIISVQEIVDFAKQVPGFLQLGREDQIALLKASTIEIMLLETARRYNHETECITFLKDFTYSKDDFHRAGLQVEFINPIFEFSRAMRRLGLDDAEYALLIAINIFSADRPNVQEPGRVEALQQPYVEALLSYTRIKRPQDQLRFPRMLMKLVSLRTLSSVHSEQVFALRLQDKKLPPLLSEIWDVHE
T1 sequence (P19793 1-462 partner): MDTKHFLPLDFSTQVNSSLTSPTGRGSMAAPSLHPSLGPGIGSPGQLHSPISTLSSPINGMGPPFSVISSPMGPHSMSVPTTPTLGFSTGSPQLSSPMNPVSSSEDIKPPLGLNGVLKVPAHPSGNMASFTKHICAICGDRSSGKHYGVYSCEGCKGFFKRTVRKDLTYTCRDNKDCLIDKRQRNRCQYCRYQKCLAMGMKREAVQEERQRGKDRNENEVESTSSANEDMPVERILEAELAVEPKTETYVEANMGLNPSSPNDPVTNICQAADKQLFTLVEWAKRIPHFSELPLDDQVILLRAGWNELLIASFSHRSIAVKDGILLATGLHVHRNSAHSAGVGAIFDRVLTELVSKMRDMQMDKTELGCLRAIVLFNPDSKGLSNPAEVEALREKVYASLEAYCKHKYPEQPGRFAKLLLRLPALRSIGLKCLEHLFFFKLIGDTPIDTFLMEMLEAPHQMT
Briefly: LXR/LXRE co-transfection assay (luciferase reporter) in CV-1 cells, LXRβ. The class given is cell-based. As to conditions: for EC50: CV-1 cells transfected with pCMX-hLXRβ and LXREx1-Tk-Luciferase, 20 hours incubation, read-out: LXRbeta agonism EC50; for Emax: CV-1 cells, relative to maximum response of high control N-(3-((4-fluorophenyl)-(naphthalene-2-sulfonyl)amino)propyl)-2,2-dimethylpropionamide, read-out: LXRbeta % EFFICACY
The method, boiled down: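 Luciferase read-out after 20 h compound treatment at 37 °C of CV-1 cells carrying transfected hLXRβ plus one-copy LXRE reporter, endogenous RXR partnering. Sigmoidal fit of 10-point half-log curves (4 wells each) gave EC50; % efficacy versus maximal response of the propionamide reference agonist.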

As for `Cc1nc(-c2ccc(OC(F)(F)F)cc2)c(-c2cc(-c3cccc(S(C)(=O)=O)c3)ccc2-n2nc(C(F)(F)F)cc2Cl)o1` [Example 345, 5-(4-(5-chloro-3-(trifluoromethyl)-1H-pyrazol-1-yl)-3′-(methylsulfonyl)biphenyl-3-yl)-2-methyl-4-(4-(trifluoromethoxy)phenyl)oxazole], the EC50 stood at 73 nM and the Emax was determined as 75%.
For `Cc1nc(-c2ccc3c(c2)OC(F)(F)O3)c(-c2cc(-c3cccc(S(C)(=O)=O)c3)ccc2-n2nc(C(F)(F)F)cc2Cl)o1` [Example 346, 5-(4-(5-chloro-3-(trifluoromethyl)-1H-pyrazol-1-yl)-3′-(methylsulfonyl)biphenyl-3-yl)-4-(2,2-difluorobenzo[d][1,3]dioxol-5-yl)-2-methyloxazole], in that order: 37 nM and 90%.
Taken in the same sequence, the figures for `Cc1nc(-c2ccc3c(c2)OC(F)(F)O3)c(-c2cc(-c3cc(F)c(CO)c(S(C)(=O)=O)c3)ccc2-n2nc(C(F)(F)F)cc2Cl)o1` [Example 347, (4′-(5-chloro-3-(trifluoromethyl)-1H-pyrazol-1-yl)-3′-(4-(2,2-difluorobenzo[d] [1,3]dioxol-5-yl)-2-methyloxazol-5-yl)-3-fluoro-5-(methylsulfonyl)biphenyl-4-yl)methanol] were 35 nM and 92%.
Taken in the same sequence, the figures for `Cc1nc(-c2ccc(OC(F)(F)F)cc2)c(-c2cc(-c3cc(F)c(CO)c(S(C)(=O)=O)c3)ccc2-n2nc(C(F)(F)F)cc2Cl)o1` [Example 348, (4′-(5-chloro-3-(trifluoromethyl)-1H-pyrazol-1-yl)-3-fluoro-3′-(2-methyl-4-(4-(trifluoromethoxy)phenyl)oxazol-5-yl)-5-(methylsulfonyl)biphenyl-4-yl)methanol] were 59 nM and 57%.
As to `Cc1nc(-c2ccc3c(c2)OC(F)(F)O3)c(-c2cc(-c3cc(F)c(CO)c(S(C)(=O)=O)c3)ccc2-n2ccc(C(F)(F)F)n2)o1` [Example 349, (3′-(4-(2,2-difluorobenzo[d][1,3]dioxol-5-yl)-2-methyloxazol-5-yl)-3-fluoro-5-(methylsulfonyl)-4′-(3-(trifluoromethyl)-1H-pyrazol-1-yl)biphenyl-4-yl)methanol], the half-maximal effective concentration (EC50) turned out to be 8 nM and the Emax amounted to 72%.
Taken in the same sequence, the figures for `Cc1nc(-c2ccc3c(c2)OC(F)(F)O3)c(-c2cc(-c3cccc(S(C)(=O)=O)c3)ccc2-n2ccc(C(F)(F)F)n2)o1` [Example 350, 4-(2,2-difluorobenzo[d][1,3]dioxol-5-yl)-2-methyl-5-(3′-(methylsulfonyl)-4-(3-(trifluoromethyl)-1H-pyrazol-1-yl)biphenyl-3-yl)oxazole] were 66 nM and 91%.
Turning to `Cc1nc(-c2cc(F)c(OC(F)F)c(F)c2)c(-c2cc(-c3cccc(S(C)(=O)=O)c3)ccc2-n2ccc(C(F)(F)F)n2)o1` [Example 351, 4-(4-(difluoromethoxy)-3,5-difluorophenyl)-2-methyl-5-(3′-(methylsulfonyl)-4-(3-(trifluoromethyl)-1H-pyrazol-1-yl)biphenyl-3-yl)oxazole], the EC50 was 62 nM and the Emax was 77%.
`Cc1nc(-c2cc(F)c(OC(F)F)c(F)c2)c(-c2cc(-c3cc(F)c(CO)c(S(C)(=O)=O)c3)ccc2-n2ccc(C(F)(F)F)n2)o1` [Example 352, (3′-(4-(4-(difluoromethoxy)-3,5-difluorophenyl)-2-methyloxazol-5-yl)-3-fluoro-5-(methylsulfonyl)-4′-(3-(trifluoromethyl)-1H-pyrazol-1-yl)biphenyl-4-yl)methanol]: the EC50 was found to be 14 nM and the Emax was 76%.
Taken in the same sequence, the figures for `Cc1nc(-c2ccc(OC(F)F)nc2)c(-c2cc(-c3cccc(S(C)(=O)=O)c3)ccc2-n2ccc(C(F)(F)F)n2)o1` [Example 353, 4-(6-(difluoromethoxy)pyridin-3-yl)-2-methyl-5-(3′-(methylsulfonyl)-4-(3-(trifluoromethyl)-1H-pyrazol-1-yl)biphenyl-3-yl)oxazole] were 23 nM and 93%.
Regarding `Cc1nc(-c2ccc(OC(F)F)nc2)c(-c2cc(-c3cc(F)c(CO)c(S(C)(=O)=O)c3)ccc2-n2ccc(C(F)(F)F)n2)o1` [Example 354, (3′-(4-(6-(difluoromethoxy)pyridin-3-yl)-2-methyloxazol-5-yl)-3-fluoro-5-(methylsulfonyl)-4′-(3-(trifluoromethyl)-1H-pyrazol-1-yl)biphenyl-4-yl)methanol], the EC50 came to 10 nM and the Emax came out at 101%.
For `Cc1nc(-c2ccc(Cl)c(OC(F)F)c2)c(-c2cc(-c3cccc(S(C)(=O)=O)c3)ccc2-n2ccc(C(F)(F)F)n2)o1` [Example 355, 4-(4-chloro-3-(difluoromethoxy)phenyl)-2-methyl-5-(3′-(methylsulfonyl)-4-(3-(trifluoromethyl)-1H-pyrazol-1-yl)biphenyl-3-yl)oxazole], in that order: 196 nM and 65%.
Taken in the same sequence, the figures for `Cc1nc(-c2ccc(Cl)c(OC(F)F)c2)c(-c2cc(-c3cc(F)c(CO)c(S(C)(=O)=O)c3)ccc2-n2ccc(C(F)(F)F)n2)o1` [Example 356, (3′-(4-(4-chloro-3-(difluoromethoxy)phenyl)-2-methyloxazol-5-yl)-3-fluoro-5-(methylsulfonyl)-4′-(3-(trifluoromethyl)-1H-pyrazol-1-yl)biphenyl-4-yl)methanol] were 71 nM and 63%.
Taken in the same sequence, the figures for `Cc1nc(-c2ccc3c(c2)OC(F)(F)O3)c(-c2cc(-c3cccc(S(C)(=O)=O)c3)ccc2-n2ccc(C(C)(C)O)n2)o1` [Example 357, 2-(1-(3-(4-(2,2-difluorobenzo[d][1,3]dioxol-5-yl)-2-methyloxazol-5-yl)-3′-(methylsulfonyl)-[1,1′-biphenyl]-4-yl)-1H-pyrazol-3-yl)propan-2-ol] were 392 nM and 41%.
Consider `Cc1nc(-c2ccc3c(c2)OC(F)(F)O3)c(-c2cc(-c3cc(F)c(CO)c(S(C)(=O)=O)c3)ccc2-n2ccc(C(C)(C)O)n2)o1` [Example 358, 2-(1-(3-(4-(2,2-difluorobenzo[d][1,3]dioxol-5-yl)-2-methyloxazol-5-yl)-3′-fluoro-4′-(hydroxymethyl)-5′-(methylsulfonyl)-[1,1′-biphenyl]-4-yl)-1H-pyrazol-3-yl)propan-2-ol], for which the EC50 was 105 nM and the Emax came out at 30%.
For `Cc1nc(-c2ccc3c(c2)OC(F)(F)O3)c(-c2cc(-c3cccc(S(C)(=O)=O)c3)ccc2-n2ccc(C(N)=O)n2)o1` [Example 359, 1-(3-(4-(2,2-difluorobenzo[d][1,3]dioxol-5-yl)-2-methyloxazol-5-yl)-3′-(methylsulfonyl)-[1,1′-biphenyl]-4-yl)-1H-pyrazole-3-carboxamide], in that order: 316 nM and 14%.
Taken in the same sequence, the figures for `Cc1nc(-c2ccc3c(c2)OC(F)(F)O3)c(-c2cc(-c3cc(F)c(CO)c(S(C)(=O)=O)c3)ccc2-n2ccc(C(N)=O)n2)o1` [Example 360, 1-(3-(4-(2,2-difluorobenzo[d][1,3]dioxol-5-yl)-2-methyloxazol-5-yl)-3-fluoro-4′-(hydroxymethyl)-5′-(methylsulfonyl)-[1,1′-biphenyl]-4-yl)-1H-pyrazole-3-carboxamide] were 263 nM and 12%.

The EC50 is the concentration giving half of the maximal effect.
